Test results reported in PMC5108032, “Discovery of a Quinoline-4-carboxamide Derivative with a Novel Mechanism of Action, Multistage Antimalarial Activity, and Potent in Vivo Efficacy” (Journal of Medicinal Chemistry, 2016).

Key:
[1] = Parallel artificial membrane permeability assay (PAMPA); type: in vitro ADME; settings: relative to the earlier lead
Rat pharmacokinetics = type: in vivo, male Sprague Dawley rats; settings: male Sprague Dawley rat, intravenous at 1 mg/kg
Description: (100 µl) was then removed from both acceptor and donor compartments and mixed with acetonitrile (80 µl) containing an internal standard. The samples were centrifuged (10 min, 5 °C, 3270 g) to sediment precipitated protein and sealed prior to UPLC-MS/MS analysis using a Quattro Premier XE (Waters Corp, USA). Pe was calculated as shown in the below equation:
Pe (nm/sec) = 107 x - In [1 - CA (t) / Cequi]
CA(t) = peak area of compound present in acceptor well at time t = 18000 sec Cequi = [CD(t) * VD + CA(t) * VA] / (VD + VA)
VA = acceptor well volume
CD(t) = peak area of compound present in donor well at time t = 18000 sec Recovery of compound from donor and acceptor wells was calculated and data was only accepted when recovery exceeded 70 %. […]
Compound was dosed as a bolus solution intravenously (12) at 3mg free base/kg (dose volume: 5 mL/kg; dose vehicle: 10% DMSO, 90% saline) to female NMRI mice (n=3) or dosed orally (12 and 13) by gavage as a solution at 10 mg free base/kg (dose volume: 10mL/kg; Dose vehicle: 5 or 10% DMSO; 40% PEG400; 50 or 55% distilled water) to female NMRI mice (n=3/dose level). […] The level of each compound in mouse blood was determined by UPLC-MS/MS as previously reported.9 Pharmacokinetic parameters were derived from the blood concentration time curve using PKsolutions software v 2.0 (Summit Research Services, USA). […]

| SMILES | increase in permeability [1] | Clb (Rat pharmacokinetics) [mL min^–1 kg^–1] |
| --- | --- | --- |
| O=C(NCCN1CCCC1)c1cc(NCCC2CCOCC2)nc2ccc(Cl)cc12 [Compound 30, 6-Chloro-N-(2-(pyrrolidin-1-yl)ethyl)-2-((2-(tetrahydro-2H-pyran-4-yl)ethyl)amino)quinoline-4-carboxamide] | more than 20 fold | – |
| O=C(NCCN1CCCC1)c1cc(-c2ccc(CN3CCOCC3)cc2F)nc2ccc(F)cc12 [Compound 41] | – | 32 |
